Experimental data as given in patent US11524966B1 (Valo Early Discovery, Inc., priority 2017, dated 2022).

Biological target: T1, USP28 (His-tagged USP28-FL-mammalian) (Homo sapiens, UniProt Q96RU2)
T1 construct: Expression of USP28 (1-1077)-TEV-6*His (pTT5 vector); made in house; host or cells: Expi293f cells (pTT5 vector)
T1 sequence (Q96RU2 1-1077): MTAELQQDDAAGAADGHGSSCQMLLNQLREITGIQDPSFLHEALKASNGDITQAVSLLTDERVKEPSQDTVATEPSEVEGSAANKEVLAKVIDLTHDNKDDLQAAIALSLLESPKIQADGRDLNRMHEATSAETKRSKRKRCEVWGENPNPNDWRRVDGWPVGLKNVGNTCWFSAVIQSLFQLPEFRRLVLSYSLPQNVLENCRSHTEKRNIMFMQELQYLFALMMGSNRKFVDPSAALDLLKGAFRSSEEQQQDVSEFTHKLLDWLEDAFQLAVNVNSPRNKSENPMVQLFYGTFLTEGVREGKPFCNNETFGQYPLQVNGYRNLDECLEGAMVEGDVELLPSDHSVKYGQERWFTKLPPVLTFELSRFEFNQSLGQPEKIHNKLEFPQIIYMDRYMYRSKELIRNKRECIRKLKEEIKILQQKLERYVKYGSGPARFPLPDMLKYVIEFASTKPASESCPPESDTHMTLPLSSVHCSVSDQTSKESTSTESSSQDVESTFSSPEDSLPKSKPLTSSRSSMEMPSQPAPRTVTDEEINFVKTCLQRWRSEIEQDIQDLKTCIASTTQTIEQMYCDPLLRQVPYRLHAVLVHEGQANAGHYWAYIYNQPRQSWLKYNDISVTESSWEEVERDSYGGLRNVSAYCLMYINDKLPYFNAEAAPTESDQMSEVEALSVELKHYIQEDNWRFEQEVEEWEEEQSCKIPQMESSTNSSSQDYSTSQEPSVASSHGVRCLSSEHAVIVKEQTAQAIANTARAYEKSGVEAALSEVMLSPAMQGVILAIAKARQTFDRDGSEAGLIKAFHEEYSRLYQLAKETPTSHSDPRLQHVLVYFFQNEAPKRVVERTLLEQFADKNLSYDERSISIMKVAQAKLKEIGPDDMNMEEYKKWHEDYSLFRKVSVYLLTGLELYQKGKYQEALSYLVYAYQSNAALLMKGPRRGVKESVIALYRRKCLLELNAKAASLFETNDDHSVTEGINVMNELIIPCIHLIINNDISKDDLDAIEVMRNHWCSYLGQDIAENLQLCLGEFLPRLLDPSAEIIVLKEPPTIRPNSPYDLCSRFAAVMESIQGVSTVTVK
Experiment: Ubiquitin-Rhodamine 110 Assay for USP28 Activity, Example A-1(a)
Assay type: biochemical
Settings: Ubiquitin-Rhodamine 110 assay, Example A-1(a); read-out: USP28 A-1(a) IC50 range
Outline: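 IC50 from 4-parameter logistic fit of percent inhibition versus no-enzyme and DMSO controls; compounds 25 μM to 1.3 nM, 3-fold. Ub-Rh110 cleavage (25 nM, below Km) by […] mammalian-expressed USP28-FL-His ran 45 min at room temperature, stopped with 10 mM citric acid, read ex 485/em 535.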

`Cc1ccc2c(N)c(C(=O)N[C@H]3COc4cc(N5C[C@@H](N)[C@H](OC(F)(F)F)C5)ccc4C3)sc2n1` (single isomer, unassigned) [Example 3-9] and `Cc1ccc2c(N)c(C(=O)N[C@H]3COc4cc(N5C[C@H](OC(F)(F)F)[C@@H](N)C5)ccc4C3)sc2n1` (single isomer, unassigned) [Example 3-10] fall in the same range of IC50: 50 to 200 nM for the first, 50 to 200 nM for the second.

Compared with `Cc1ccc2c(N)c(C(=O)N[C@H]3COc4c(cc(F)c(N5CCNCC5)c4F)C3)sc2n1` (single isomer, unassigned) [Example 3-17], `Cc1ccc2c(N)c(C(=O)N[C@@H]3COc4c(cc(F)c(N5CCNCC5)c4F)C3)sc2n1` (single isomer, unassigned) [Example 3-18] is higher in IC50: 1 to 50 nM for the first, 200 to 2000 nM for the second. The first is the more potent here.

`Cc1ccc2c(N)c(C(=O)N[C@H]3COc4cc(N5C[C@H](N)CC56COC6)ccc4C3)sc2n1` (single isomer, unassigned) [Example 351] and `Cc1ccc2c(N)c(C(=O)N[C@H]3COc4cc(N5C[C@@H](N)CC56COC6)ccc4C3)sc2n1` (single isomer, unassigned) [Example 352] fall in the same range of IC50: 1 to 50 nM for the first, 1 to 50 nM for the second.

First: O=C(N[C@H]1CCc2c(c(F)cc(N3CC4CCC(C3)N4)c2C(F)F)C1)c1cnc2c(c1)[C@@H]1C[C@@H]1CN2 (single isomer, unassigned) [Example 359]
Second: O=C(N[C@H]1CCc2c(c(F)cc(N3CC4CCC(C3)N4)c2C(F)F)C1)c1cnc2c(c1)[C@H]1C[C@H]1CN2 (single isomer, unassigned) [Example 360]
The IC50 of the first is higher: greater than 2000 nM for the first, 1 to 50 nM for the second. The second is the more potent here.

Compared with `O=C(N[C@@H]1CCc2c(c(F)cc(N3CC4CCC(C3)N4)c2C(F)F)C1)c1cnc2c(c1)[C@@H]1C[C@@H]1CN2` (single isomer, unassigned) [Example 361], `O=C(N[C@@H]1CCc2c(c(F)cc(N3CC4CCC(C3)N4)c2C(F)F)C1)c1cnc2c(c1)[C@H]1C[C@H]1CN2` (single isomer, unassigned) [Example 362] is lower in IC50: greater than 2000 nM for the first, 200 to 2000 nM for the second.

`Cc1ccc2c(N)c(C(=O)N[C@H]3COc4cc(N5C[C@H](N)[C@@H](F)C5)ccc4C3)sc2n1` [Example 3-7, 3-amino-N-((R)-7-((3S,4S)-3-amino-4-fluoropyrrolidin-1-yl)chroman-3-yl)-6-methylthieno[2,3-b]pyridine-2-carboxamide] and `Cc1ccc2c(N)c(C(=O)N[C@H]3COc4cc(N5C[C@@H](N)[C@H](F)C5)ccc4C3)sc2n1` [Example 3-8, 3-amino-N-((R)-7-((3R,4R)-3-amino-4-fluoropyrrolidin-1-yl)chroman-3-yl)-6-methylthieno[2,3-b]pyridine-2-carboxamide] fall in the same range of IC50: 1 to 50 nM for the first, 1 to 50 nM for the second.

`Cc1ccc2c(N)c(C(=O)N[C@H]3COc4cc(N5CCN[C@@H](C(F)(F)F)C5)ccc4C3)sc2n1` [Example 3-11, 3-amino-6-methyl-N-((R)-7-((R)-3-(trifluoromethyl)piperazin-1-yl)chroman-3-yl)thieno[2,3-b]pyridine-2-carboxamide] and `Cc1ccc2c(N)c(C(=O)N[C@H]3COc4cc(N5CCN[C@H](C(F)(F)F)C5)ccc4C3)sc2n1` [Example 3-12, 3-amino-6-methyl-N-((R)-7-((S)-3-(trifluoromethyl)piperazin-1-yl)chroman-3-yl)thieno[2,3-b]pyridine-2-carboxamide] fall in the same range of IC50: 50 to 200 nM for the first, 50 to 200 nM for the second.

`Cc1ccc2c(N)c(C(=O)N[C@H]3COc4cc(N5CC[C@]6(CCCNC6)C5)ccc4C3)sc2n1` [Example 3-13, N-((R)-7-((S)-2,7-diazaspiro[4.5]decan-2-yl)chroman-3-yl)-3-amino-6-methylthieno[2,3-b]pyridine-2-carboxamide] and `Cc1ccc2c(N)c(C(=O)N[C@H]3COc4cc(N5CC[C@@]6(CCCNC6)C5)ccc4C3)sc2n1` [Example 3-14, N-((R)-7-((R)-2,7-diazaspiro[4.5]decan-2-yl)chroman-3-yl)-3-amino-6-methylthieno[2,3-b]pyridine-2-carboxamide] fall in the same range of IC50: 1 to 50 nM for the first, 1 to 50 nM for the second.

First: O=C(N[C@H]1COc2cc(N3CC4CCC(C3)N4)ccc2C1)c1cnc2c(c1)[C@@H]1C[C@@H]1CN2 [Example 3-15, (1aS,7bR)-N-((3R)-7-(3,8-diazabicyclo[3.2.l]octan-3-yl)chroman-3-yl)-1a,2,3,7b-tetrahydro-1H-cyclopropa[c][1,8]naphthyridine-6-carboxamide]
Second: O=C(N[C@H]1COc2cc(N3CC4CCC(C3)N4)ccc2C1)c1cnc2c(c1)[C@H]1C[C@H]1CN2 [Example 3-16, (1aR,7bS)-N-((3R)-7-(3,8-diazabicyclo[3.2.1]octan-3-yl)chroman-3-yl)-1a,2,3,7b-tetrahydro-1H-cyclopropa[c][1,8]naphthyridine-6-carboxamide]
The IC50 of the first is lower: 1 to 50 nM for the first, 200 to 2000 nM for the second. The first is the more potent here.

`Cc1ccc2c(N)c(C(=O)N[C@H]3COc4cc(N5CCC(F)(F)CC5)ccc4C3)sc2n1` [Example 5-1, (R)-3-amino-N-(7-(4,4-difluoropiperidin-1-yl)chroman-3-yl)-6-methylthieno[2,3-b]pyridine-2-carboxamide] and `Cc1ccc2c(N)c(C(=O)N[C@H]3COc4cc(N5CCS(=O)(=O)CC5)ccc4C3)sc2n1` [Example 5-2, (R)-3-amino-N-(7-(1,1-dioxidothiomorpholino)chroman-3-yl)-6-methylthieno[2,3-b]pyridine-2-carboxamide] fall in the same range of IC50: 1 to 50 nM for the first, 1 to 50 nM for the second.

`Cc1ccc2c(N)c(C(=O)N[C@H]3COc4cc(N5CC(O)(C(F)(F)F)C5)ccc4C3)sc2n1` [Example 5-3, (R)-3-amino-N-(7-(3-hydroxy-3-(trifluoromethyl)azetidin-1-yl)chroman-3-yl)-6-methylthieno[2,3-b]pyridine-2-carboxamide] and `Cc1ccc2c(N)c(C(=O)N[C@H]3COc4cc(N5CCC[C@](C)(O)C5)ccc4C3)sc2n1` [Example 7-2] fall in the same range of IC50: 1 to 50 nM for the first, 1 to 50 nM for the second.

First: Cc1ccc2c(N)c(C(=O)N[C@H]3COc4cc(N5CC6COCC(C5)C6(F)F)ccc4C3)sc2n1 [Example 5-4, 3-amino-N-((3R)-7-(9,9-difluoro-3-oxa-7-azabicyclo[3.3.1]nonan-7-yl)chroman-3-yl)-6-methylthieno[2,3-b]pyridine-2-carboxamide]
Second: Cc1ccc2c(N)c(C(=O)N[C@H]3COc4cc(N5CC[C@@H](C(=O)O)C5)ccc4C3)sc2n1 [Example 6-2, (R)-1-((R)-3-(3-amino-6-methylthieno[2,3-b]pyridine-2-carboxamido)chroman-7-yl)pyrrolidine-3-carboxylic acid]
The IC50 of the first is lower: 1 to 50 nM for the first, 50 to 200 nM for the second.

Compared with `Cc1ccc2c(N)c(C(=O)N[C@H]3COc4cc(N5CCC(C(=O)O)CC5)ccc4C3)sc2n1` [Example 6-1, (R)-1-(3-(3-Amino-6-methylthieno[2,3-b]pyridine-2-carboxamido)chroman-7-yl)piperidine-4-carboxylic Acid], `Cc1ccc2c(N)c(C(=O)N[C@H]3COc4cc(N5CC[C@H](C(=O)O)C5)ccc4C3)sc2n1` [Example 6-3, (S)-1-((R)-3-(3-amino-6-methylthieno[2,3-b]pyridine-2-carboxamido)chroman-7-yl)pyrrolidine-3-carboxylic acid] is lower in IC50: 200 to 2000 nM for the first, 50 to 200 nM for the second.

First: Cc1cnc2c(N)c(C(=O)N[C@H]3CCc4cc(N5CC(C(=O)O)C5)ccc4C3)sc2n1 [Example 6-4, (S)-1-(6-(7-amino-3-methylthieno[2,3-b]pyrazine-6-carboxamido)-5,6,7,8-tetrahydronaphthalen-2-yl)azetidine-3-carboxylic acid]
Second: Cc1ccc2c(N)c(C(=O)N[C@H]3COc4cc(N5CCC(O)CC5)ccc4C3)sc2n1 [Example 7-1, (R)-3-amino-N-(7-(4-hydroxypiperidin-1-yl)chroman-3-yl)-6-methylthieno[2,3-b]pyridine-2-carboxamide]
The IC50 of the first is higher: 200 to 2000 nM for the first, 1 to 50 nM for the second.

Compared with `Cc1ccc2c(N)c(C(=O)N[C@H]3COc4cc(N5CCC[C@@](C)(O)C5)ccc4C3)sc2n1` [Example 7-3, 3-amino-N-((R)-7-((R)-3-hydroxy-3-methylpiperidin-l-yl)chroman-3-yl)-6-methylthieno[2,3-b]pyridine-2-carboxamide], `Cc1ccc2c(N)c(C(=O)N[C@H]3CCc4nc(N5C[C@H](N)[C@H](C(F)F)C5)ccc4C3)sc2n1` [Example 345, 3-amino-N-[(6S)-2-[(3R,4R)-3-amino-4-(difluoromethyl)pyrrolidin-1-yl]-5,6,7,8-tetrahydroquinolin-6-yl]-6-methylthieno[2,3-b]pyridine-2-carboxamide] is higher in IC50: 1 to 50 nM for the first, 50 to 200 nM for the second. The first is the more potent here.
